Test results taken from patent US9913832B2, “Accelerating thrombus resolution through augmentation of p53 activity” (priority 2009, dated 2018).
Entries after “also recorded” stand apart in the source; their conditions may differ.

What was measured:
[1] = tested on: mice lacking the p53 gene; assay: mouse model of thrombus resolution (vena caval ligation), mice lacking the p53 gene; format: in vivo; details: quinacrine versus control, FIG. 9, last two columns
Text: To determine whether the beneficial effect on thrombus resolution of quinacrine was due to activation of the p53 gene and not some other unknown effect of quinacrine on thrombus resolution the quinacrine experiment was repeated in mice that lack p53 (FIG. 2).
(§1) The well-established rodent model of thrombus resolution was used to define a role for the p53 gene in this process. In this model, a mouse is anesthetized, the abdomen is opened with standard sterile surgical technique and the vena cava (the largest abdominal vein) is ligated in the abdomen with a suture immediately below the level of the renal veins.
To determine if pharmacologic activation of the p53 gene beyond its usual activation by thrombus resolution might accelerate thrombus resolution, normal mice were treated with the p53 activator quinacrine (25 mg/kg body weight, by daily injection) or saline as a control, and then subjected to vena caval ligation as described above. […] To determine if this effect of quinacrine was actually due to p53 activation, this experiment was repeated in animals lacking the p53 gene.

normal (wildtype) mice = assay: mouse model of thrombus resolution (vena caval ligation), normal mice; format: in vivo; details: 25 mg/kg body weight by daily injection, versus saline, FIG. 8
Text: In an effort to develop pharmacological and molecular therapy to accelerate thrombus resolution, the function of the p53 gene was studied in an in vivo model of thrombus resolution. In this mouse model (vena caval ligation) the thrombus shrinks between day 4 and day 12 by about 50% as defined by change in thrombus weight. It was noted that the expression of the p53 protein is increased in thrombus resolution.
In order to determine whether augmentation of normal p53 function could accelerate thombus resolution wildtype mice were treated with the p53 activator quinacrine (25 mg/kg body weight, by daily injection). Quinacrine is known to increase p53 levels by stabilizing the p53 protein and preventing its normal degradation inside cells.
as §1
The weight of the thrombus decreases with time, and this change in weight reflects the thrombus resolution process in this model. […]

experimental thrombi = details: literature studies of exogenous therapy on formed or established thrombus; cited from earlier work

Row | Molecule | thrombus resolution / thrombus size at day 12 [1] | thrombus resolution as determined by thrombus weight on day 12 (normal (wildtype) mice) | thrombus resolution in experimental animal models (experimental thrombi)
1 | CCN(CC)CCCC(C)Nc1c2ccc(Cl)cc2nc2ccc(OC)cc12 (stereo not shown) [quinacrine] | absent; also recorded: no difference in thrombus size | improved thrombus resolution; also recorded: decreased thrombus weight | 
2 | MCP-1: cytokine macrophage chemotactic factor |  |  | does improve experimental thrombus resolution
3 | low molecular weight heparin |  |  | no improvement in the resolution of an established thrombus
